Values of other authors as cited in paper PMC8146789, “20-Hydroxyecdysone, from Plant Extracts to Clinical Use: Therapeutic Potential for the Treatment of Neuromuscular, Cardio-Metabolic and Respiratory Diseases” (Biomedicines, 2021).

Columns and labels:
[1] = tested on: epididymal adipose tissue; parameters: method as in PMID 21869758; conditions: mice, high-fat diet, 20E 50 mg/kg/day; ref [59]; cited from earlier work
[2] = parameters: method as in PMID 4650153; conditions: mice, oral; ref [122]; cited from earlier work
[3] = parameters: method as in PMID 33819630; conditions: male Wistar rats, oral [3H]20E; ref [127]; cited from earlier work
[4] = parameters: method as in doi:10.1007/BF02234932; conditions: 15 mg/day, 10 days; ref [166]; cited from earlier work
[5] = parameters: method as in doi:10.1055/s-0032-1320426; conditions: ref [171],[172], cited from earlier work
[6] = parameters: method as in ref [174] = [174]; 174. Thole S.W. The Metabolic Syndrome: The Effects of β-ecdysone on Selected Body Parameters and Serum Lipids on the Metabolic Syndrome Ph.D. Thesis University of Göttingen Göttingen, Germany 2018; conditions: ref [174], cited from earlier work
[7] = alcohols; cited from earlier work
[8] = tested on: rats; conditions: long-term feeding 0.2–2 g/kg/day, ref [121]; cited from earlier work
[9] = slightly overweight persons, 200 mg daily
[10] = patients with metabolic syndrome

CC(C)(O)CC[C@@H](O)[C@](C)(O)[C@H]1CC[C@@]2(O)C3=CC(=O)[C@@H]4C[C@@H](O)[C@@H](O)C[C@]4(C)[C@H]3CC[C@]12C [20E, 2β,3β,14α,20R,22R,25-hexahydroxy-5β-cholest-7-en-6-one]
adipocyte diameter [1]: retains the median adipocyte diameter close to that in mice fed a low-fat diet | mass of epididymal fat pads [1]: counteracts both the increase in the mass of the fat pads | bioavailability [2]: low | radioactivity crossing the intestinal tract, of that administered [2]: < 2% | route of elimination [2]: essentially fecal | radioactivity in urine, of the total radioactivity recovered [3]: 1.40% | time to completed elimination of 20E and its metabolites [3]: ≤ 48 h | kidney function and microcirculation [4]: Improvement of kidney function and of microcirculation | output of trial in menopause disorders ([5]; overweight, 100 or 200 mg/day, 3 months): Prevention of metabolic syndrome and osteoporosis, reduction in body weight, reduction in plasma cholesterol and CRP; proposed for hormone replacement therapy | increase of HDL [5, 9]: 10.8% | reduction of LDL [5, 9]: 13.9% | reduction of serum cholesterol [5, 9]: 10.2% | reduction of triglycerides [5, 9]: 31.1% | reduction of waist circumference [5, 9]: 2.7 cm | output of metabolic syndrome study ([6]; 40 or 90 mg/day, 3–6–9 months): Reductions in body mass, proportion of body fat, waist cicumference and hsCRP, retention of muscle mass | body parameters versus control group [6, 10]: continuous and significant loss of body mass, fat percentage, and waist diameter | effect on serum lipids [6, 10]: no significant effect on serum lipids | hsCRP level [6, 10]: marked reduction | solubility [7]: highly soluble in alcohols | subacute toxicity [8]: no subacute toxicity was observed
